From the supplement of paper PMC13380429

What was measured:
Conditions in all cases: 72 h
Vero E6 [1] = experiment: drug sensitivity score (DSS) for viability; higher = more toxic; extreme values may be limits of the assay
Calu-3 [2] = experiment: as above
U2OS [3] = experiment: as above
Caco-2 [4] = experiment: as above
HepG2 [5] = experiment: as above
Vero E6 [6] = experiment: cell viability relative to DMSO; higher = less toxic
Calu-3 [7] = experiment: as above
U2OS [8] = experiment: as above
Caco-2 [9] = experiment: as above
HepG2 [10] = experiment: as above
Vero E6 [11] = experiment: relative viability EC50 (midpoint between 100% and the lowest measured viability); higher = less toxic
Calu-3 [12] = experiment: as above
U2OS [13] = experiment: as above
Caco-2 [14] = experiment: as above
HepG2 [15] = experiment: as above

Row | Compound | drug sensitivity score (Vero E6 [1]) | drug sensitivity score (Calu-3 [2]) | drug sensitivity score (U2OS [3]) | drug sensitivity score (Caco-2 [4]) | drug sensitivity score (HepG2 [5]) | cell viability (Vero E6 [6]; 1 nM) [%] | cell viability (Vero E6 [6]; 10 nM) [%] | cell viability (Vero E6 [6]; 100 nM) [%] | cell viability (Vero E6 [6]; 1000 nM) [%] | cell viability (Vero E6 [6]; 10000 nM) [%] | cell viability (Calu-3 [7]; 1 nM) [%] | cell viability (Calu-3 [7]; 10 nM) [%] | cell viability (Calu-3 [7]; 100 nM) [%] | cell viability (Calu-3 [7]; 1000 nM) [%] | cell viability (Calu-3 [7]; 10000 nM) [%] | cell viability (U2OS [8]; 1 nM) [%] | cell viability (U2OS [8]; 10 nM) [%] | cell viability (U2OS [8]; 100 nM) [%] | cell viability (U2OS [8]; 1000 nM) [%] | cell viability (U2OS [8]; 10000 nM) [%] | cell viability (Caco-2 [9]; 1 nM) [%] | cell viability (Caco-2 [9]; 10 nM) [%] | cell viability (Caco-2 [9]; 100 nM) [%] | cell viability (Caco-2 [9]; 1000 nM) [%] | cell viability (Caco-2 [9]; 10000 nM) [%] | cell viability (HepG2 [10]; 1 nM) [%] | cell viability (HepG2 [10]; 10 nM) [%] | cell viability (HepG2 [10]; 100 nM) [%] | cell viability (HepG2 [10]; 1000 nM) [%] | cell viability (HepG2 [10]; 10000 nM) [%] | relative viability EC50 (Vero E6 [11]) [µM] | relative viability EC50 (Calu-3 [12]) [µM] | relative viability EC50 (U2OS [13]) [µM] | relative viability EC50 (Caco-2 [14]) [µM] | relative viability EC50 (HepG2 [15]) [µM]
1 | CO[C@@]1(NC(=O)C(C(=O)O)c2ccc(O)cc2)C(=O)N2C(C(=O)O)=C(CSc3nnnn3C)CO[C@@H]21 (stereo not given in full) [moxalactam] | 0 | 0 | 0 | 0 | 0 | 98.1 | 97.5 | 98.1 | 92.7 | 100 | 93.2 | 100 | 92.1 | 105 | 98 | 94.8 | 98.2 | 96.1 | 103 | 104 | 92.6 | 99.7 | 96.7 | 95.9 | 105 | 102 | 95.2 | 117 | 84.9 | 117 | > 10 | > 10 | > 10 | > 10 | > 10
2 | COc1ccc2cc(CCC(C)=O)ccc2c1 [nabumetone] | 0.3 | 0 | 0 | 0 | 0 | 101 | 104 | 101 | 93.8 | 88.1 | 98.2 | 90.6 | 86.7 | 106 | 95.4 | 98.5 | 95.2 | 99.9 | 93.3 | 101 | 111 | 90.4 | 89.2 | 97.4 | 94.5 | 99.8 | 97.8 | 105 | 90.8 | 95.8 | > 10 | > 10 | > 10 | > 10 | > 10
3 | COc1ccc(-c2nc(-c3ccc(-c4cccc(Cl)c4)o3)[nH]c2-c2ccc(OC)cc2)cc1 [neurodazine] | 0 | 0.6 | 0 | 0.2 | 0.3 | 109 | 103 | 98.4 | 102 | 96.6 | 91.4 | 96 | 97.2 | 79.6 | 89.6 | 100 | 99 | 105 | 96.3 | 96.1 | 106 | 94.9 | 109 | 103 | 84.4 | 112 | 99.5 | 96.3 | 98.2 | 86.2 | > 10 | > 10 | > 10 | > 10 | > 10
4 | O=C1N=C2SCCN2C(=O)C1Cc1ccc(Cl)cc1 (stereo not given) [nuclomedone] | 0 | 0 | 0 | 0 | 0 | 96.9 | 95.5 | 95.1 | 104 | 93.4 | 91.5 | 104 | 95.5 | 99.9 | 90.5 | 98.4 | 97.6 | 95.6 | 95.6 | 96.4 | 93.1 | 96.5 | 91.9 | 92.2 | 94.9 | 93.7 | 89.1 | 95.3 | 96.4 | 92 | > 10 | > 10 | > 10 | > 10 | > 10
5 | CCCCCCCC/C=C\CCCCCCCC(=O)NCCO [oleoylethanolamide] | 0 | 0 | 0 | 0 | 0 | 106 | 102 | 105 | 96.4 | 103 | 97.2 | 101 | 97.1 | 102 | 101 | 99.8 | 100 | 97 | 103 | 103 | 86.2 | 99.2 | 92.3 | 104 | 106 | 92.1 | 96.1 | 103 | 90.2 | 104 | > 10 | > 10 | > 10 | > 10 | > 10
6 | COc1cccc(C(=O)CCN[C@@H](C)[C@H](O)c2ccccc2)c1 [oxyfedrine] | 0 | 0 | 0 | 0 | 1.3 | 103 | 99.8 | 99.2 | 104 | 101 | 86.3 | 98.6 | 113 | 95.6 | 107 | 97.8 | 103 | 98.5 | 99.9 | 95.4 | 99.3 | 101 | 108 | 102 | 95.8 | 101 | 105 | 98.9 | 91.3 | 79.8 | > 10 | > 10 | > 10 | > 10 | > 10
7 | CC(=O)CCCCn1c(=O)c2c(ncn2C)n(C)c1=O [pentoxifylline] | 0 | 0 | 0 | 0 | 0 | 104 | 110 | 108 | 108 | 99.2 | 99.7 | 95 | 104 | 95.8 | 98.1 | 101 | 96.1 | 102 | 94.2 | 100 | 98.1 | 115 | 97 | 114 | 89.1 | 88.1 | 98.5 | 110 | 94.3 | 106 | > 10 | > 10 | > 10 | > 10 | > 10
8 | O=C1OC(c2ccc(O)cc2)(c2ccc(O)cc2)c2ccccc21 [phenolphthalein] | 0 | 0 | 0 | 0 | 0 | 95.8 | 93.2 | 87.4 | 95.3 | 107 | 96.1 | 94.8 | 94.2 | 102 | 102 | 99.1 | 96.1 | 99.7 | 97 | 105 | 86.3 | 77.8 | 99.7 | 93.2 | 102 | 131 | 76.1 | 112 | 105 | 119 | > 10 | > 10 | > 10 | > 10 | > 10
9 | O=C(CCc1ccc(O)cc1)c1c(O)cc(O)cc1O[C@@H]1O[C@H](CO)[C@@H](O)[C@H](O)[C@H]1O [phlorizin] | 0 | 0 | 0 | 0 | 0 | 96.4 | 97.9 | 98.4 | 96.7 | 97.3 | 89.7 | 95.5 | 93.2 | 94.3 | 95.3 | 96.7 | 98.5 | 93.3 | 104 | 94.5 | 94.3 | 118 | 98.3 | 97.7 | 93.7 | 107 | 87.5 | 94.9 | 96.9 | 106 | > 10 | > 10 | > 10 | > 10 | > 10
10 | CC[C@@H]1C(=O)OC[C@@H]1Cc1cncn1C [pilocarpine] | 0 | 0 | 0 | 0 | 0 | 106 | 104 | 99.3 | 106 | 103 | 109 | 102 | 103 | 98.4 | 97.9 | 106 | 101 | 101 | 99.2 | 100 | 100 | 98.1 | 88.7 | 91.3 | 103 | 97.7 | 95.3 | 105 | 104 | 105 | > 10 | > 10 | > 10 | > 10 | > 10
11 | COc1cc2nc(N3CCN(C(=O)c4ccco4)CC3)nc(N)c2cc1OC [prazosin] | 0 | 0 | 0 | 0 | 0 | 102 | 105 | 101 | 99.3 | 118 | 105 | 102 | 103 | 97.4 | 99.1 | 98.2 | 97.8 | 99.5 | 102 | 101 | 94.4 | 91.2 | 98.4 | 96 | 92.5 | 89.9 | 93.5 | 86.2 | 91.9 | 97.6 | > 10 | > 10 | > 10 | > 10 | > 10
12 | CCN(CC)CCOC(=O)c1ccc(N)cc1 [procaine] | 0 | 0 | 0 | 0 | 0 | 104 | 99.4 | 99.3 | 103 | 98.5 | 100 | 93.3 | 92 | 97 | 98.3 | 100 | 95.2 | 97.9 | 94.2 | 102 | 92.8 | 92.7 | 96.6 | 97 | 97.3 | 108 | 94.9 | 100 | 97.7 | 98.9 | > 10 | > 10 | > 10 | > 10 | > 10
13 | CNC(=O)Oc1ccccc1OC(C)C [propoxur] | 1 | 0 | 0 | 0 | 0 | 95 | 106 | 102 | 88.2 | 85.4 | 102 | 97.1 | 86.2 | 94.4 | 104 | 101 | 97.7 | 95.7 | 94.9 | 98.2 | 99.6 | 84.6 | 104 | 88.1 | 101 | 105 | 93.3 | 87.5 | 93.8 | 99.7 | > 10 | > 10 | > 10 | > 10 | > 10
14 | C[C@@H](O)[C@H](N)C(=O)N1CCC[C@H]1C(=O)N1CCC[C@H]1C(=O)N[C@H](C(N)=O)[C@@H](C)O [rapastinel] | 0 | 0 | 0 | 0 | 0 | 97.6 | 99.5 | 95 | 102 | 114 | 95.3 | 101 | 91.4 | 96.8 | 106 | 95.7 | 94.4 | 98.8 | 95.6 | 97.3 | 100 | 88 | 97.6 | 97.1 | 92.6 | 100 | 110 | 91.9 | 104 | 97.6 | > 10 | > 10 | > 10 | > 10 | > 10
